According to patent US6355799B1, “Substituted benzene compounds, process for their preparation, and herbicidal and defoliant compositions containing them” (ISK Americas Incorporated, priority 1997, dated 2002):

Legend:
Format in all cases: in vivo
[1] = test system: velvetleaf (Abutilon theophrasti, ABUTH); experiment: Post-emerge test, greenhouse herbicide activity screening; details: post-emerge, phytotoxicity rating 0-100 at 14 days after application
How it was run: (§1)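 Compounds in acetone were track-sprayed at 187 l/ha, 15–1000 g ai/ha, onto sandy loam pots. Pre-emerge seeds were sown one day before spraying, with surface watering afterwards. Post-emerge plants were at the 2–3 leaf stage and sprayed with 0.25% v/v non-ionic surfactant. Injury was rated 0–100 at 14 days.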

[2] = test system: barnyardgrass (Echinochloa crus-galli, ECHCG); experiment: as above; details: post-emerge, phytotoxicity rating 0-100 at 14 days after application
How it was run: as §1

[3] = test system: redroot pigweed (Amaranthus retroflexus, AMARE); experiment: as above; details: post-emerge, phytotoxicity rating 0-100 at 14 days after application
How it was run: as §1

[4] = test system: large crabgrass (Digitaria sanguinalis, DIGSA); experiment: as above; details: post-emerge, phytotoxicity rating 0-100 at 14 days after application
How it was run: as §1

[5] = test system: lambsquarters (Chenopodium album, CHEAL); experiment: as above; details: post-emerge, phytotoxicity rating 0-100 at 14 days after application
How it was run: as §1

[6] = test system: green foxtail (Setaria viridis, SETVI); experiment: as above; details: post-emerge, phytotoxicity rating 0-100 at 14 days after application
How it was run: as §1

[7] = test system: ivyleaf morningglory (Ipomoea hederacea, IPOHE); experiment: as above; details: post-emerge, phytotoxicity rating 0-100 at 14 days after application
How it was run: as §1

[8] = test system: sicklepod (Cassia obtusifolia, CASOB); experiment: as above; details: post-emerge, phytotoxicity rating 0-100 at 14 days after application
How it was run: as §1

[9] = test system: johnsongrass (Sorghum halepense, SORHA); experiment: as above; details: post-emerge, phytotoxicity rating 0-100 at 14 days after application
How it was run: as §1

[10] = test system: velvetleaf (Abutilon theophrasti, ABUTH); experiment: Pre-emerge test, greenhouse herbicide activity screening; details: pre-emerge, phytotoxicity rating 0-100 at 14 days after application
How it was run: (§2)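 Plants grown in 10 cm pots of sandy loam mix received acetone-dissolved compounds through a moving flat-fan nozzle. Doses ranged from 15 to 1000 g ai/ha. Pre-emerge pots were seeded one day earlier, post-emerge pots 8–21 days earlier. Fourteen days on, each pot was graded 0–100 for damage.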

[11] = test system: barnyardgrass (Echinochloa crus-galli, ECHCG); experiment: as above; details: pre-emerge, phytotoxicity rating 0-100 at 14 days after application
How it was run: as §2

[12] = test system: large crabgrass (Digitaria sanguinalis, DIGSA); experiment: as above; details: pre-emerge, phytotoxicity rating 0-100 at 14 days after application
How it was run: as §2

[13] = test system: lambsquarters (Chenopodium album, CHEAL); experiment: as above; details: pre-emerge, phytotoxicity rating 0-100 at 14 days after application
How it was run: as §2

[14] = test system: green foxtail (Setaria viridis, SETVI); experiment: as above; details: pre-emerge, phytotoxicity rating 0-100 at 14 days after application
How it was run: as §2

[15] = test system: ivyleaf morningglory (Ipomoea hederacea, IPOHE); experiment: as above; details: pre-emerge, phytotoxicity rating 0-100 at 14 days after application
How it was run: as §2

[16] = test system: sicklepod (Cassia obtusifolia, CASOB); experiment: as above; details: pre-emerge, phytotoxicity rating 0-100 at 14 days after application
How it was run: as §2

[17] = test system: johnsongrass (Sorghum halepense, SORHA); experiment: as above; details: pre-emerge, phytotoxicity rating 0-100 at 14 days after application
How it was run: as §2

[18] = test system: upland rice (Oryza sp., var. Tebonnet, RICE); experiment: Post-emerge test, crop safety; details: post-emerge, crop damage rating 0-100 at 14 days after application
How it was run: (§3)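 Each test used a mechanized track sprayer delivering 187 l/ha of acetone solution at 15–1000 g ai/ha. Post-emerge foliage at 2–3 leaves was treated with added 0.25% v/v non-ionic surfactant and bottom-watered only. Injury was assessed on day 14, where 100 means total kill.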

[19] = test system: field corn (Zea mays L., var. Dekalb 535, CORN); experiment: Post-emerge test, crop safety; details: post-emerge, crop damage rating 0-100 at 14 days after application
How it was run: as §3

[20] = test system: redroot pigweed (Amaranthus retroflexus, AMARE); experiment: Pre-emerge test, greenhouse herbicide activity screening; details: pre-emerge, phytotoxicity rating 0-100 at 14 days after application
How it was run: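 Rating: 0–100 visual injury, 14 DAA. Application: acetone, 187 l/ha, 15–1000 g ai/ha, flat-fan track sprayer with nozzle 40–45 cm above soil or canopy. Post-emerge runs used 0.25% v/v surfactant on 2–3 leaf plants.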

[21] = test system: upland rice (Oryza sp., var. Tebonnet, RICE); experiment: Pre-emerge test, crop safety; details: crop damage, pre-emerge, phytotoxicity rating 0-100 at 14 days after application
How it was run: (§4)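 Fourteen days after spraying, crop and weed injury was graded visually from 0, no effect, to 100, every plant dead. Test substances were dissolved in acetone and applied at 15–1000 g ai/ha with a flat-fan nozzle. Application was either pre-emergence, one day after sowing, or post-emergence at the 2–3 leaf stage.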

[22] = test system: field corn (Zea mays L., var. Dekalb 535, CORN); experiment: Pre-emerge test, crop safety; details: crop damage, pre-emerge, phytotoxicity rating 0-100 at 14 days after application
How it was run: as §4

CC(C)Oc1c(Cl)cc(F)c(N2C(=O)C3=C(CCCC3)C2=O)c1NC(=O)c1ccc(F)cc1F [8-18]
50: Post-emerge Herbicidal Activity IPOHE ([7]; 63 g ai/ha) | Pre-emerge Herbicidal Activity SETVI ([14]; rate 63 g ai/ha) | Pre-emerge Herbicidal Activity SORHA ([17]; rate 250 g ai/ha) | Post-emerge Herbicidal Activity RICE ([18]; 63 g ai/ha)
40: Post-emerge Herbicidal Activity CASOB ([8]; 250 g ai/ha)
70: Post-emerge Herbicidal Activity CHEAL ([5]; 63 g ai/ha) | Pre-emerge Herbicidal Activity CHEAL ([13]; rate 63 g ai/ha)
60: Post-emerge Herbicidal Activity IPOHE ([7]; 250 g ai/ha) | Pre-emerge Herbicidal Activity CASOB ([16]; rate 250 g ai/ha) | Post-emerge Herbicidal Activity RICE ([18]; 250 g ai/ha) | Pre-emerge Herbicidal Activity AMARE ([20]; rate 63 g ai/ha)
90: Pre-emerge Herbicidal Activity ABUTH ([10]; rate 63 g ai/ha) | Pre-emerge Herbicidal Activity ECHCG ([11]; rate 250 g ai/ha)
100: Post-emerge Herbicidal Activity ABUTH ([1]; 63 g ai/ha) | Post-emerge Herbicidal Activity ABUTH ([1]; 250 g ai/ha) | Post-emerge Herbicidal Activity AMARE ([3]; 63 g ai/ha) | Post-emerge Herbicidal Activity AMARE ([3]; 250 g ai/ha) | Pre-emerge Herbicidal Activity ABUTH ([10]; rate 250 g ai/ha) | Pre-emerge Herbicidal Activity CHEAL ([13]; rate 250 g ai/ha) | Pre-emerge Herbicidal Activity SETVI ([14]; rate 250 g ai/ha) | Pre-emerge Herbicidal Activity AMARE ([20]; rate 250 g ai/ha)
30: Post-emerge Herbicidal Activity ECHCG ([2]; 250 g ai/ha) | Post-emerge Herbicidal Activity SETVI ([6]; 63 g ai/ha) | Post-emerge Herbicidal Activity SETVI ([6]; 250 g ai/ha) | Post-emerge Herbicidal Activity CASOB ([8]; 63 g ai/ha) | Post-emerge Herbicidal Activity SORHA ([9]; 250 g ai/ha) | Pre-emerge Herbicidal Activity IPOHE ([15]; rate 250 g ai/ha) | Post-emerge Herbicidal Activity CORN ([19]; 250 g ai/ha) | Pre-emerge Herbicidal Activity RICE ([21]; rate 250 g ai/ha)
20: Post-emerge Herbicidal Activity DIGSA ([4]; 250 g ai/ha)
5: Post-emerge Herbicidal Activity CORN ([19]; 63 g ai/ha)
0: Pre-emerge Herbicidal Activity IPOHE ([15]; rate 63 g ai/ha) | Pre-emerge Herbicidal Activity CASOB ([16]; rate 63 g ai/ha) | Pre-emerge Herbicidal Activity SORHA ([17]; rate 63 g ai/ha) | Pre-emerge Herbicidal Activity CORN ([22]; rate 63 g ai/ha)
80: Post-emerge Herbicidal Activity CHEAL ([5]; 250 g ai/ha) | Pre-emerge Herbicidal Activity DIGSA ([12]; rate 250 g ai/ha)
10: Post-emerge Herbicidal Activity ECHCG ([2]; 63 g ai/ha) | Post-emerge Herbicidal Activity DIGSA ([4]; 63 g ai/ha) | Post-emerge Herbicidal Activity SORHA ([9]; 63 g ai/ha) | Pre-emerge Herbicidal Activity ECHCG ([11]; rate 63 g ai/ha) | Pre-emerge Herbicidal Activity DIGSA ([12]; rate 63 g ai/ha) | Pre-emerge Herbicidal Activity RICE ([21]; rate 63 g ai/ha) | Pre-emerge Herbicidal Activity CORN ([22]; rate 250 g ai/ha)

C=Cc1ccc(C(=O)Nc2c(OC)c(Cl)cc(F)c2N2C(=O)C3=C(CCCC3)C2=O)cc1 [8-30]
5: Pre-emerge Herbicidal Activity RICE ([21]; rate 63 g ai/ha) | Pre-emerge Herbicidal Activity CORN ([22]; rate 250 g ai/ha)
10: Pre-emerge Herbicidal Activity IPOHE ([15]; rate 250 g ai/ha) | Post-emerge Herbicidal Activity CORN ([19]; 63 g ai/ha) | Pre-emerge Herbicidal Activity RICE ([21]; rate 250 g ai/ha)
90: Pre-emerge Herbicidal Activity ABUTH ([10]; rate 250 g ai/ha)
70: Post-emerge Herbicidal Activity ECHCG ([2]; 250 g ai/ha) | Post-emerge Herbicidal Activity SETVI ([6]; 250 g ai/ha) | Pre-emerge Herbicidal Activity ABUTH ([10]; rate 63 g ai/ha) | Pre-emerge Herbicidal Activity SETVI ([14]; rate 250 g ai/ha)
100: Post-emerge Herbicidal Activity ABUTH ([1]; 63 g ai/ha) | Post-emerge Herbicidal Activity ABUTH ([1]; 250 g ai/ha) | Post-emerge Herbicidal Activity AMARE ([3]; 63 g ai/ha) | Post-emerge Herbicidal Activity AMARE ([3]; 250 g ai/ha) | Post-emerge Herbicidal Activity CHEAL ([5]; 63 g ai/ha) | Post-emerge Herbicidal Activity CHEAL ([5]; 250 g ai/ha) | Post-emerge Herbicidal Activity IPOHE ([7]; 63 g ai/ha) | Post-emerge Herbicidal Activity IPOHE ([7]; 250 g ai/ha) | Post-emerge Herbicidal Activity CASOB ([8]; 250 g ai/ha) | Pre-emerge Herbicidal Activity CHEAL ([13]; rate 63 g ai/ha) | Pre-emerge Herbicidal Activity CHEAL ([13]; rate 250 g ai/ha) | Pre-emerge Herbicidal Activity AMARE ([20]; rate 63 g ai/ha) | Pre-emerge Herbicidal Activity AMARE ([20]; rate 250 g ai/ha)
0: Pre-emerge Herbicidal Activity ECHCG ([11]; rate 63 g ai/ha) | Pre-emerge Herbicidal Activity SORHA ([17]; rate 63 g ai/ha) | Pre-emerge Herbicidal Activity CORN ([22]; rate 63 g ai/ha)
40: Post-emerge Herbicidal Activity DIGSA ([4]; 250 g ai/ha) | Post-emerge Herbicidal Activity SETVI ([6]; 63 g ai/ha) | Post-emerge Herbicidal Activity RICE ([18]; 63 g ai/ha)
15: Post-emerge Herbicidal Activity CORN ([19]; 250 g ai/ha)
80: Post-emerge Herbicidal Activity CASOB ([8]; 63 g ai/ha)
30: Post-emerge Herbicidal Activity ECHCG ([2]; 63 g ai/ha) | Post-emerge Herbicidal Activity SORHA ([9]; 63 g ai/ha) | Pre-emerge Herbicidal Activity DIGSA ([12]; rate 63 g ai/ha) | Pre-emerge Herbicidal Activity SORHA ([17]; rate 250 g ai/ha)
50: Post-emerge Herbicidal Activity SORHA ([9]; 250 g ai/ha) | Pre-emerge Herbicidal Activity DIGSA ([12]; rate 250 g ai/ha)
20: Post-emerge Herbicidal Activity DIGSA ([4]; 63 g ai/ha) | Pre-emerge Herbicidal Activity ECHCG ([11]; rate 250 g ai/ha) | Pre-emerge Herbicidal Activity SETVI ([14]; rate 63 g ai/ha) | Pre-emerge Herbicidal Activity IPOHE ([15]; rate 63 g ai/ha) | Pre-emerge Herbicidal Activity CASOB ([16]; rate 63 g ai/ha) | Pre-emerge Herbicidal Activity CASOB ([16]; rate 250 g ai/ha)
35: Post-emerge Herbicidal Activity RICE ([18]; 250 g ai/ha)
